Data reported in BindingDB's records for doi:10.1021/jm9000242 (Bristol Myers Squibb, 2009).
pIC50: −log10 of the molar value.

Molecular target: T1, Corticotropin-releasing factor receptor 1 (Rattus norvegicus, UniProt P35353)
T1 sequence (P35353 whole entry): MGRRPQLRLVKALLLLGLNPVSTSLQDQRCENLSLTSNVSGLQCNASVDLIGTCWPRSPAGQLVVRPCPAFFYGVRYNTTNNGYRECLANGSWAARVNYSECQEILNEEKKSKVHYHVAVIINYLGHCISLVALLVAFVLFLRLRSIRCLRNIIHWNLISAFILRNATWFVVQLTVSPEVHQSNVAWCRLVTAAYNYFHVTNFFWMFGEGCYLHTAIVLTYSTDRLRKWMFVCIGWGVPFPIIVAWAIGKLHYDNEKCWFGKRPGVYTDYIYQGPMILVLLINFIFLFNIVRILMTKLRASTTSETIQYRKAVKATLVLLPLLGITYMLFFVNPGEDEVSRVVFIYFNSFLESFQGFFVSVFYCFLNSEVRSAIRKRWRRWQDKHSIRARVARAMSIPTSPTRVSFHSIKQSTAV
Test: In Vitro Binding Autoradiography
Procedure: Naive rats were sacrificed by decapitation, and the brain and pituitary were collected. Slide-mounted brain sections were preincubated in an assay solution containing [125I]oCRF for 2 h at room temperature. Concentration-related displacement of test compound was assessed by including the compound in the incubation solution. The adjacent sections were incubated under the same conditions in the presence of 1 uM alpha-helical CRF for defining nonspecific binding for CRF receptor. Nonspecific binding for CRF1 receptors was defined by 1 uM DMP696 or CP-154,526. After incubation, the sections were rinsed, dried, and then placed in cassettes against iodine-sensitive storage phosphor-imaging screens (PerkinElmer Life Sciences), and the screens were then digitally scanned with a Cyclone storage phosphor-imaging system (PerkinElmer Life Sciences). Captured storage phosphor images were analyzed with OptiQuant Acquisition and Analysis software (PerkinElmer Life Sciences).

pIC50 (pH 7.2, 23 °C)	pIC50 (25 °C)	SMILES
8.24	–	CC[C@@H](C)Nc1nc(C)nc2c(-c3c(C)cc(OC)cc3OC)c(C)nn12 [Pyrazolo[1,5-a]-1,3,5-triazine, 12-16]
–	8.37	CCCCN(C)c1nc(C)nc2c(-c3c(C)cc(OC)cc3C)c(C)nn12 [Pyrazolo[1,5-a]-1,3,5-triazine, 12-32]
8.83	–	CCCN(CC1CC1)c1nc(C)nc2c(-c3c(C)cc(OC)cc3OC)c(C)nn12 [Pyrazolo[1,5-a]-1,3,5-triazine, 12-22]
